{
  "source": "patent US12636291B2",
  "about": "“Compositions and methods relating to use of agonists of ALPHA5-containing GABAA receptors” (Centre for Addiction and Mental Health, priority 2019, dated 2026)",
  "test_system": "Layer II/III pyramidal cells of prefrontal cortex (PFC)",
  "experiment": "Golgi staining morphological analysis of PFC pyramidal cells",
  "format": "in vivo, mouse",
  "details": "for spine density versus branch orders, overall: FIG. 17A; for spine density versus branch orders, basal dendrites: FIG. 17B; for spine density versus branch orders, apical dendrites: FIG. 17C; for spine density at 30 micron intervals from the soma, overall: FIG. 18A; for spine density at 30 micron intervals from the soma, basal dendrites: FIG. 18B; for spine density at 30 micron intervals from the soma, apical dendrites: FIG. 18C",
  "procedure": "Details of the animals, materials, and methods used are provided following the discussion section below. Briefly, all studies discussed below were conducted using three groups of animals designated “Young” (2 months of age at the beginning of the 8-week study, 4 months of age at time of testing; “Old” (22 months of age at beginning of study, 24 months of age at time of testing); and “Treatment” (“Old” mice who received GL-II-73 in the drinking water for 8 weeks prior to evaluation of cognitive ability and pyramidal cell morphology). The last study further included a fourth group of animals, “Treatment+Washout” which were treated the same as the “Treatment” group except that the GL-II-73 was removed for a 1 week “wash-out” period prior to evaluation of pyramidal cell morphology.\nTable 1 summarizes the results of a quantitative assessment of the morphological properties of Layer II/III pyramidal cells of prefrontal cortex (PFC) between Young, Old, and Treatment groups. […] Check marks represent countable spines; X's represent uncountable spines. The total number of sampled neurons in the PFC study was 72 cells with a total of 1,888 dendritic segments, 193,698 total dendritic lengths (μm), and 199,529 spine counts, respectively.\nTable 2 summarizes the results of a quantitative assessment of the morphological properties of Layer II/III pyramidal cells of prefrontal cortex (PFC) between Young, Old, Old-Treatment, and Old-washout groups. As noted above, mice assigned to the “Young” group were 2 months of age at the beginning of the 8-week study and 4 months of age at time of testing; mice assigned to the “Old” group were 22 months of age at beginning of study, 24 months of age at time of testing; mice assigned to the “Old-Treatment” group were the same age as the “Old” group and received GL-II-73 in their drinking water for 8 weeks prior to evaluation; and mice assigned to the “Old-washout” group were the same age and treatment as the “Old-Treatment” group except that the GL-II-73 was removed for a 1 week “wash-out” period prior to evaluation. Differences in total dendritic lengths, overall spine counts, and overall spine density between groups were determined via ANOVA analysis.\nDrug preparation and administration: The compound GL-II-73 was administered in the drinking water for 8 weeks, and made fresh every other day to prevent any deterioration of the compound in the water at room temperature. The solution was prepared at 30 mg/kg for an estimated volume of 8 ml/mouse/day, based on previous calculations. For the pilot study in the 5×FAD mouse model, the compound GL-II-73 was prepared for intra peritoneal injection only, at a dose of 10 mg/kg. Vehicle solution was made of 85% distilled water, 14% propylene glycol and 1% tween-80.\nBrain collection and Golgi staining: Twenty-four hours after the completion of the behavioral testing, mice were euthanized using cervical dislocation. Brains were carefully collected from the skull, rinsed with MilliQ water and immersed in the Golgi staining solution provided by Neurodigitech (San Diego, CA). Six hours after the beginning of the incubation, the solution was changed to provide fresh solution. Then brains were left incubating for 14 days at room temperature, in the dark. For better results, vials containing the brains were gently swirled 3 times a week. After the incubation period, the staining solution was discarded and replaced by a storage solution and brains (n=4 per group) were shipped to Neurodigitech for morphological analysis.\nSlice preparation: Brains were cut at 40 μm thickness using a cryostat and mounted on glass slides. The slides included serial coronal sections that covered the anterior-to-posterior axis of the brain. The sampling of ROIs included the basal and apical dendrites of pyramidal cells in Layers II/III of PFC. […]",
  "key": {"[1]": {"details": "Table 1, first study, Old, Treatment group, 4 samples"}, "[2]": {"details": "Table 2, washout study, Old, Treatment group, 4 samples"}, "[3]": {"details": "Table 2, Old, Washout group, 4 samples"}, "[4]": {"details": "washout study, FIG. 15B, Treatment vs Old mice, p<0.05"}, "[5]": {"details": "washout study, FIG. 15B, Washout vs Old mice, p<0.05"}, "[6]": {"details": "washout study, FIG. 16B, Old+Treatment vs Old mice, p<0.05"}, "[7]": {"details": "washout study, FIG. 16B, Washout vs Old mice, p<0.05"}, "[8]": {"details": "washout study, Old+Treatment vs Old mice, p<0.05"}, "[9]": {"details": "washout study, Washout vs Old mice, p<0.05"}},
  "data": [
    {"smiles": "C#Cc1ccc2c(c1)C(c1ccccc1F)=N[C@H](C)c1c(C(=O)N(C)C)ncn1-2", "note": "(stereo in doubt) [GL-II-73, 8-ethynyl-6-(2-fluorophenyl)-N,N,4-trimethyl-4H-benzo[f]imidazo[1,5-a][1,4]diazepine-3-carboxamide]", "values": [
      {"measurement": "Total segments", "setting": "Table 1, first study, Old, Treatment group (GL-II-73 in drinking water 8 weeks), 4 samples", "result": 666},
      {"measurement": "Overall spinal density", "setting": "[1]", "result": 1.01},
      {"measurement": "Total lengths (microns)", "setting": "[1]", "result": "66,656 microns"},
      {"measurement": "total spine counts", "setting": "[1]", "result": "67,107"},
      {"measurement": "Total segments", "setting": "Table 2, washout study, Old, Treatment group (8 weeks GL-II-73), 4 samples", "result": 1180},
      {"measurement": "Overall spinal density", "setting": "[2]", "result": 1.11},
      {"measurement": "Total lengths (microns)", "setting": "[2]", "result": 58395, "unit": "microns"},
      {"measurement": "total spine counts", "setting": "[2]", "result": 64863},
      {"measurement": "Total segments", "setting": "Table 2, Old, Washout group (8 weeks GL-II-73, then 1 week wash-out), 4 samples", "result": 1253},
      {"measurement": "Overall spinal density", "setting": "[3]", "result": 1.17},
      {"measurement": "Total lengths (microns)", "setting": "[3]", "result": 59414, "unit": "microns"},
      {"measurement": "total spine counts", "setting": "[3]", "result": 69305},
      {"measurement": "total dendritic lengths", "setting": "first study, FIG. 3A, treatment group vs young mice, p>0.05", "result": "no significant difference in total dendritic length between the young mice and the treatment group"},
      {"measurement": "total dendritic lengths, basal dendrite", "setting": "first study, FIG. 3B, between groups, p>0.05", "result": "no difference was found in the basal dendrite between groups"},
      {"measurement": "total dendritic lengths, apical dendrites", "setting": "first study, FIG. 3B, treatment group vs old mice, p<0.05", "result": "higher total dendritic lengths of apical dendrites than old mice"},
      {"measurement": "total spine counts", "setting": "first study, FIG. 4A, treatment group vs old mice, p<0.05", "result": "higher spine counts than old mice"},
      {"measurement": "total spine counts, apical dendrites", "setting": "first study, FIG. 4B, treatment group vs old mice, p<0.05", "result": "higher spine count than old mice"},
      {"measurement": "total spine counts, basal dendrites", "setting": "first study, FIG. 4B, treatment group vs young mice, p>0.05", "result": "no difference in both basal and apical dendrites between young mice and the treatment group"},
      {"measurement": "overall spine density", "setting": "first study, FIG. 5A, treatment group vs old mice, p<0.05", "result": "higher density than old mice"},
      {"measurement": "spine density, apical dendrites", "setting": "first study, FIG. 5B, treatment group vs old mice, p>0.05", "result": "no difference between old mice and the treatment group"},
      {"measurement": "spine density × branch orders, overall", "setting": "first study, FIG. 6A, treatment group vs old mice, p<0.05", "result": "higher density at the 1st branch order than old mice"},
      {"measurement": "spine density × branch orders, basal dendrites", "setting": "first study, FIG. 6B, treatment group vs old mice, p<0.05", "result": "significantly higher density at the 1st branch order than old mice"},
      {"measurement": "spine density × branch orders, apical dendrites", "setting": "first study, FIG. 6C, treatment group vs old mice, p<0.05", "result": "higher density at the 1st order than old mice"},
      {"measurement": "spine density × every 30 micron interval from soma, overall", "setting": "first study, FIG. 7A, Sholl analysis, treatment group vs old mice, p<0.05", "result": "higher density at 180 micron interval from soma than old mice"},
      {"measurement": "spine density × every 30 micron interval from soma, apical dendrites", "setting": "first study, FIG. 7C, treatment group vs old mice, p<0.05", "result": "higher density at 180 micron interval from soma of the dendritic field than old mice"},
      {"measurement": "frequency of intersections × 30 micron interval relative to soma, overall", "setting": "first study, FIG. 8A, old vs treatment group, p<0.05", "result": "significant reductions at a distance of 120-150 micron from the soma between old and young mice as well as between old and the treatment group"},
      {"measurement": "frequency of intersections × 30 micron interval, basal dendrites", "setting": "first study, FIG. 8B, old vs treatment group, p>0.05", "result": "a trend of decrease was found at 120-150 micron interval from soma between Old and Young as well as old and the treatment group"},
      {"measurement": "frequency of intersections × 30 micron interval, apical dendrites", "setting": "first study, FIG. 8C, treatment group vs old mice, p<0.05", "result": "higher frequency at 120-150 micron interval from soma than old mice"},
      {"measurement": "total spine counts", "setting": "washout study, FIG. 15A, Old+Treatment vs Old mice, p<0.05", "result": "more spine counts than Old mice"},
      {"measurement": "total spine counts", "setting": "washout study, FIG. 15A, Washout (1 week after 8 weeks GL-II-73) vs Old mice, p<0.05", "result": "more spine counts than Old mice"},
      {"measurement": "total spine counts, apical dendrites", "setting": "[4]", "result": "higher spine counts"},
      {"measurement": "total spine counts, basal dendrites", "setting": "[4]", "result": "higher spine counts"},
      {"measurement": "total spine counts, apical dendrites", "setting": "[5]", "result": "higher spine counts"},
      {"measurement": "total spine counts, basal dendrites", "setting": "[5]", "result": "higher spine counts"},
      {"measurement": "overall spine density", "setting": "washout study, FIG. 16A, Old+Treatment vs Old mice, p<0.05", "result": "higher spine density than Old mice"},
      {"measurement": "overall spine density", "setting": "washout study, FIG. 16A, Washout vs Old mice, p<0.05", "result": "higher spine density than Old mice"},
      {"measurement": "spine density, apical dendrites", "setting": "[6]", "result": "Old mice exhibited a lower spine density than Young, Old+Treatment and Washout mice"},
      {"measurement": "spine density, basal dendrite", "setting": "[6]", "result": "Old mice showed a significant decrease of spine density in the basal dendrite as compared to Young, Old+Treatment and Washout mice"},
      {"measurement": "spine density, apical dendrites", "setting": "[7]", "result": "Old mice exhibited a lower spine density than Young, Old+Treatment and Washout mice"},
      {"measurement": "spine density, basal dendrite", "setting": "[7]", "result": "Old mice showed a significant decrease of spine density in the basal dendrite as compared to Young, Old+Treatment and Washout mice"},
      {"measurement": "spine density versus branch orders, overall", "setting": "[8]", "result": "higher spine density at the 2nd to 6th"},
      {"measurement": "spine density versus branch orders, overall", "setting": "[9]", "result": "3rd to 6th branch orders"},
      {"measurement": "spine density versus branch orders, basal dendrites", "setting": "[8]", "result": "higher density at the 5th branch order than Old mice"},
      {"measurement": "spine density versus branch orders, basal dendrites", "setting": "[9]", "result": "higher density at the 5th branch order than Old mice"},
      {"measurement": "spine density versus branch orders, apical dendrites", "setting": "[8]", "result": "higher density at the 2nd branch order than Old mice"},
      {"measurement": "spine density versus branch orders, apical dendrites", "setting": "[9]", "result": "higher spine density at the 5th to 6th branch orders than Old mice"},
      {"measurement": "spine density at 30 micron intervals from the soma, overall", "setting": "[8]", "result": "higher spine density at 150 um to 210 um from soma"},
      {"measurement": "spine density at 30 micron intervals from the soma, overall", "setting": "[9]", "result": "higher spine density at 90 um to 210 um from soma"},
      {"measurement": "spine density at 30 micron intervals from the soma, basal dendrites", "setting": "[8]", "result": "higher density between 150 um and 180 um from soma"},
      {"measurement": "spine density at 30 micron intervals from the soma, basal dendrites", "setting": "[9]", "result": "higher density between 120 um and 180 um from the soma than Old mice"},
      {"measurement": "spine density at 30 micron intervals from the soma, apical dendrites", "setting": "[8]", "result": "higher density at 180 um to 210 um from soma"},
      {"measurement": "spine density at 30 micron intervals from the soma, apical dendrites", "setting": "[9]", "result": "higher spine density at 120 um to 210 um from soma"}
    ]}
  ]
}
